According to article PMC2774465 (Journal of natural products, 2008):
In brackets after ≈: the same amount, converted by molar mass. Like-named read-outs stand apart in the source and are kept apart here.

Key:
Trypanasoma cruzi = assay: Chagas disease bioassay; assay type: cell-based, T. cruzi; settings: Trypanosoma cruzi
Plasmodium falciparum = assay: Malaria bioassay; assay type: cell-based
[1] = system: L. donovani amastigotes (LD-1S/MHOM/SD/00-strain 1S); assay type: cell-based; settings: Leishmania donovani, read-out: IC50 L. donovani
Leishmania = settings: cited from earlier work

Row | IC50 (Trypanasoma cruzi; read-out: IC50 T. cruzi) | IC50 (Plasmodium falciparum; read-out: IC50 P. falciparum) | Structure (SMILES) | also measured
1 | > 10 µg/mL |  | O=C1C=C[C@]23Oc4ccc(O)c5c4[C@](CCC5=O)(Oc4cccc1c42)O3 [Compound 1, preussomerin EG1] | 
2 |  | > 10 µg/mL | O=C1CCC2(Oc3cccc4cccc(c34)O2)c2cccc(O)c21 [Compound 2, palmarumycin CP2] | 
3 | > 10 µg/mL | > 10 µg/mL | O=C1CCC2(Oc3cccc4cccc(c34)O2)c2c(O)ccc(O)c21 [Compound 3, palmarumycin CP17] | 
4 | > 10 µg/mL | > 10 µg/mL | O=C1C=CC(=O)C2=C1[C@@H](O)CCC21Oc2cccc3cccc(c23)O1 [Compound 4, 4(S)-hydroxy-2,3-dihydro-2(H)-spiro[naphthalene-1(4H),2'-naphtho[1,8-de][1,3]dioxin]-5,8-dione] | 
5 |  | > 10 µg/mL | Oc1cccc2c1[C@@H](O)CCC21Oc2cccc3cccc(c23)O1 [Compound 5, CJ-12,371] | 
6 |  |  | C[C@@H]1[C@H](O)[C@@H](C)/C=C/C=C/C=C/C=C/C=C/C=C/C=C/[C@H](O[C@@H]2O[C@H](C)[C@@H](O)[C@H](N)[C@@H]2O)C[C@@H]2O[C@](O)(C[C@@H](O)C[C@@H](O)[C@H](O)CC[C@@H](O)C[C@@H](O)CC(=O)O[C@H]1C)C[C@H](O)[C@H]2C(=O)O [amphotericin B] | IC50 [1]: 90 nM
7 |  |  | COc1cc(OC)c(-c2c(C)cc3cccc(OC)c3c2O)c2c1C(C)=N[C@@H](C)C2 [ancistrotanzanine A] | antileishmanial activity IC50 (Leishmania): 1.8 µg/mL
8 |  |  | COc1cc(OC)c(-c2ccc(OC)c3c(OC)cc(C)cc23)c2c1C(C)=N[C@@H](C)C2 [ancistrotanzanine B] | antileishmanial activity IC50 (Leishmania): 1.6 µg/mL
9 |  |  | CCN(CC)CCCC(C)Nc1ccnc2cc(Cl)ccc12 (stereo not drawn) [chloroquine, reference compound] | IC50 (Plasmodium falciparum; read-out: IC50 (positive control, malaria bioassay)): 80 to 100 nM
10 |  |  | CC1CS(=O)(=O)CCN1/N=C/c1ccc([N+](=O)[O-])o1 (stereo not drawn) [nifurtimox, reference compound] | IC50 (Trypanasoma cruzi; read-out: IC50 (positive control, Chagas disease bioassay)): 3 to 5 µg/mL (≈ 10.4 to 17.4 µM)
